Reference: publication PMC11845761, “Intestinal human carboxylesterase 2 (CES2) expression rescues drug metabolism and most metabolic syndrome phenotypes in global Ces2 cluster knockout mice” (Acta Pharmacologica Sinica, 2024)
Where two headings read alike, the source gives them in different places.

What was measured:
[1] = Tissue concentrations of capecitabine and its metabolites 2 h after oral capecitabine in CES2-modified mice; assay type: in vivo, mouse; settings: oral capecitabine 500 mg/kg; for concentration at 2 h: female, mouse, oral, 500 mg/kg
Protocol: (§1) For capecitabine 2-h experiments, 6–7 female mice received oral capecitabine (500 mg/kg, 10 μL/g), and tail vein blood samples were collected at 0.125, 0.25, 0.5 and 1 h after drug administration. For the vinorelbine 4-h experiment, 6-7 male mice received vinorelbine intravenously (10 mg/kg, 5 μL/g) or orally (10 mg/kg, 10 μL/g) using a blunt-ended needle. Tail vein blood samples were collected at 0.125, 0.25, 0.5, 1 and 2 h after drug administration. […] At the last time point in each experiment (2 or 4 h), mice were anesthetized with 5% isoflurane and blood was collected by cardiac puncture. […] Plasma was isolated from the blood by centrifugation at 9000 × g for 6 min at 4 °C, and the plasma fraction was collected and stored at −30 °C until analysis.
(§2) Concentrations of capecitabine (and its metabolites) and vinorelbine (and its metabolite) in mouse plasma samples and organ homogenates were determined using two independent validated high-performance liquid chromatography-tandem mass spectrometry assays.
(§3) Pharmacokinetic parameters were calculated by non-compartmental methods using the PK solver software. […] Differences were considered statistically significant when P < 0.05. All data are presented as mean ± SD.

[2] = Plasma pharmacokinetics of capecitabine and its metabolites after oral capecitabine in CES2-modified mice; assay type: in vivo, mouse; settings: oral capecitabine 500 mg/kg; for AUC(0-t) / Cmax / Tmax / AUC0-2h / AUC0-2h ratio (metabolite/capecitabine): plasma; for AUC(0-t): read-out: AUC0-2h
Protocol: as §1, §2, §3

SMILES: CCCCCOC(=O)Nc1nc(=O)n([C@@H]2O[C@H](C)[C@@H](O)[C@H]2O)cc1F [Capecitabine, reference compound]
- liver concentration, fold greater in Ces2^–/– than in wild-type mice ([1]; female mice): 13.8 fold
- liver concentration, reduction in Ces2^–/–A compared with Ces2^–/– mice ([1]; female mice): 74.2%
- liver concentration, reduction in Ces2^–/–V compared with Ces2^–/– mice ([1]; female mice): 63.5%
- small intestine concentration, fold higher in Ces2^-/- than in wild-type mice ([1]; female mice): 10.6 fold
- concentration at 2 h ([1]; Ces2^-/-, liver, female Ces2^–/– mice, read-out: Cliver (liver concentration)): 18000 ± 8740 ng/g
- concentration at 2 h ([1]; Ces2^-/-, small intestine, female Ces2^–/– mice, read-out: CSI (small intestine tissue concentration)): 17200 ± 6550 ng/g
- concentration at 2 h ([1]; Ces2^-/-A, liver, female Ces2^–/–A mice, read-out: Cliver (liver concentration)): 4650 ± 1760 ng/g
- concentration at 2 h ([1]; Ces2^-/-A, small intestine tissue, female Ces2^–/–A mice, read-out: CSI (small intestine tissue concentration)): 15200 ± 6020 ng/g
- concentration at 2 h ([1]; Ces2^-/-V, liver, female Ces2^–/–V mice, read-out: Cliver (liver concentration)): 6570 ± 3220 ng/g
- concentration at 2 h ([1]; Ces2^-/-V, small intestine, female Ces2^–/–V mice, read-out: CSI (small intestine tissue concentration)): 2410 ± 1190 ng/g
- concentration at 2 h ([1]; Ces2^–/– (Ces2 cluster knockout), small intestine, female Ces2^–/– mice, read-out: CSI (small intestine tissue concentration)): 17200 ng/g
- concentration at 2 h ([1]; colon, female Ces2^–/– mice, read-out: Ccolon (colon concentration)): 14300 ± 9020 ng/g
- concentration at 2 h ([1]; colon, female Ces2^–/–A mice, read-out: Ccolon (colon concentration)): 8780 ± 1630 ng/g
- concentration at 2 h ([1]; colon, female Ces2^–/–V mice, read-out: Ccolon (colon concentration)): 4970 ± 2980 ng/g
- concentration at 2 h ([1]; colon, female wild-type mice, read-out: Ccolon (colon concentration)): 2250 ± 712 ng/g
- concentration at 2 h ([1]; liver, female wild-type mice, read-out: Cliver (liver concentration)): 1300 ± 522 ng/g
- concentration at 2 h ([1]; small intestine contents, female Ces2^–/– mice, read-out: CSIC (small intestine contents concentration)): 97200 ± 37200 ng/g
- concentration at 2 h ([1]; small intestine contents, female Ces2^–/–A mice, read-out: CSIC (small intestine contents concentration)): 88500 ± 25100 ng/g
- concentration at 2 h ([1]; small intestine contents, female Ces2^–/–V mice, read-out: CSIC (small intestine contents concentration)): 49700 ± 45900 ng/g
- concentration at 2 h ([1]; small intestine contents, female wild-type mice, read-out: CSIC (small intestine contents concentration)): 26500 ± 16300 ng/g
- concentration at 2 h ([1]; small intestine tissue, female wild-type mice, read-out: CSI (small intestine tissue concentration)): 1630 ± 865 ng/g
- concentration at 2 h ([1]; small intestine, female Ces2^–/–V mice, read-out: CSI (small intestine tissue concentration)): 2410 ± 1190 ng/g
- plasma AUC0-2h, fold greater in Ces2^–/– than in wild-type mice ([2]; female mice): 5.3 fold
- plasma AUC0-2h, lower in Ces2^–/–V than in Ces2^–/– mice ([2]; female mice): 44%
- AUC(0-t) ([2]; female, Ces2^–/– (Ces2 cluster knockout), mouse, po, 500 mg/kg, female Ces2^–/– mice): 31300 ± 16600 ng·h/mL
- Cmax ([2]; female, Ces2^–/– (Ces2 cluster knockout), mouse, po, 500 mg/kg, female Ces2^–/– mice, read-out: Cmax): 42600 ± 17800 ng/mL
- Tmax ([2]; female, Ces2^–/– (Ces2 cluster knockout), mouse, po, 500 mg/kg, female Ces2^–/– mice, read-out: Tmax): 12.6 ± 3.6 min
- AUC(0-t) ([2]; female, mouse, po, 500 mg/kg, female Ces2^–/–A mice): 31500 ± 19200 ng·h/mL
- Cmax ([2]; female, mouse, po, 500 mg/kg, female Ces2^–/–A mice, read-out: Cmax): 47000 ± 34100 ng/mL
- Tmax ([2]; female, mouse, po, 500 mg/kg, female Ces2^–/–A mice, read-out: Tmax): 10.2 ± 4.2 min
- AUC(0-t) ([2]; female, mouse, po, 500 mg/kg, female Ces2^–/–V mice): 17500 ± 9710 ng·h/mL
- Cmax ([2]; female, mouse, po, 500 mg/kg, female Ces2^–/–V mice, read-out: Cmax): 23400 ± 14100 ng/mL
- Tmax ([2]; female, mouse, po, 500 mg/kg, female Ces2^–/–V mice, read-out: Tmax): 9.6 ± 3.6 min
- AUC(0-t) ([2]; female, mouse, po, 500 mg/kg, female wild-type mice): 5850 ± 1380 ng·h/mL
- Cmax ([2]; female, mouse, po, 500 mg/kg, female wild-type mice, read-out: Cmax): 12200 ± 3800 ng/mL
- Tmax ([2]; female, mouse, po, 500 mg/kg, female wild-type mice, read-out: Tmax): 11.4 ± 4.2 min

SMILES: NCC(F)C(=O)O (stereo not shown) [FBAL]
- CSI (small intestine tissue concentration) ([1]; female Ces2^–/– mice): 1239 ± 335 ng/g
- Ccolon (colon concentration) ([1]; female Ces2^–/– mice): 1355 ± 281 ng/g
- Cliver (liver concentration) ([1]; female Ces2^–/– mice): 59839 ± 11722 ng/g
- Colon concentration ratio (metabolite/capecitabine) ([1]; female Ces2^–/– mice): 0.12 ± 0.05
- Liver concentration ratio (metabolite/capecitabine) ([1]; female Ces2^–/– mice): 4.2 ± 2.7
- Small intestine concentration ratio (metabolite/capecitabine) ([1]; female Ces2^–/– mice): 0.08 ± 0.05
- CSI (small intestine tissue concentration) ([1]; female Ces2^–/–A mice): 2193 ± 960 ng/g
- Ccolon (colon concentration) ([1]; female Ces2^–/–A mice): 2105 ± 600 ng/g
- Cliver (liver concentration) ([1]; female Ces2^–/–A mice): 102959 ± 17203 ng/g
- Colon concentration ratio (metabolite/capecitabine) ([1]; female Ces2^–/–A mice): 0.24 ± 0.02
- Liver concentration ratio (metabolite/capecitabine) ([1]; female Ces2^–/–A mice): 25 ± 11
- Small intestine concentration ratio (metabolite/capecitabine) ([1]; female Ces2^–/–A mice): 0.15 ± 0.04
- CSI (small intestine tissue concentration) ([1]; female Ces2^–/–V mice): 1830 ± 655 ng/g
- Ccolon (colon concentration) ([1]; female Ces2^–/–V mice): 2080 ± 446 ng/g
- Cliver (liver concentration) ([1]; female Ces2^–/–V mice): 77125 ± 16534 ng/g
- Colon concentration ratio (metabolite/capecitabine) ([1]; female Ces2^–/–V mice): 0.60 ± 0.36^###^
- Liver concentration ratio (metabolite/capecitabine) ([1]; female Ces2^–/–V mice): 18 ± 16
- Small intestine concentration ratio (metabolite/capecitabine) ([1]; female Ces2^–/–V mice): 1.5 ± 2.0^###^^^
- CSI (small intestine tissue concentration) ([1]; female wild-type mice): 1174 ± 174 ng/g
- Ccolon (colon concentration) ([1]; female wild-type mice): 1322 ± 249 ng/g
- Cliver (liver concentration) ([1]; female wild-type mice): 55840 ± 13861 ng/g
- Colon concentration ratio (metabolite/capecitabine) ([1]; female wild-type mice): 0.62 ± 0.16
- Liver concentration ratio (metabolite/capecitabine) ([1]; female wild-type mice): 48 ± 19
- Small intestine concentration ratio (metabolite/capecitabine) ([1]; female wild-type mice): 0.86 ± 0.38
- AUC0-2h ([2]; female Ces2^–/– mice): 1833 ± 504 ng·h/mL
- AUC0-2h ratio (metabolite/capecitabine) ([2]; female Ces2^–/– mice): 0.07 ± 0.04
- Cmax ([2]; female Ces2^–/– mice): 1684 ± 597 ng/mL
- Tmax ([2]; female Ces2^–/– mice): 120 ± 0 min
- AUC0-2h ([2]; female Ces2^–/–A mice): 2910 ± 671 ng·h/mL
- AUC0-2h ratio (metabolite/capecitabine) ([2]; female Ces2^–/–A mice): 0.12 ± 0.06
- Cmax ([2]; female Ces2^–/–A mice): 2923 ± 760 ng/mL
- Tmax ([2]; female Ces2^–/–A mice): 108 ± 24 min
- AUC0-2h ([2]; female Ces2^–/–V mice): 2874 ± 659 ng·h/mL
- AUC0-2h ratio (metabolite/capecitabine) ([2]; female Ces2^–/–V mice): 0.20 ± 0.09
- Cmax ([2]; female Ces2^–/–V mice): 2606 ± 698 ng/mL
- Tmax ([2]; female Ces2^–/–V mice): 120 ± 0 min
- AUC0-2h ([2]; female wild-type mice): 1966 ± 158 ng·h/mL
- AUC0-2h ratio (metabolite/capecitabine) ([2]; female wild-type mice): 0.35 ± 0.08
- Cmax ([2]; female wild-type mice): 1755 ± 308 ng/mL
- Tmax ([2]; female wild-type mice): 120 ± 0 min
